Test results taken from the NIST ThermoML archive (doi:10.1016/j.jct.2007.07.010).
Values joined by “and” are separate entries in the source; they are usually repeats but may differ in a detail not shown here. Equal entries are not always repeated.

Key:
[1] = Crystal; for vapor or sublimation pressure: Calculated from knudsen effusion weight loss; for Normal melting temperature: DTA
[2] = Molar enthalpy of transition or fusion; conditions: Crystal; DSC

O=C(O)Cc1ccccc1Cl [(2-chlorophenyl)ethanoic acid]
[1]
Conditions | vapor or sublimation pressure
322.2 K | 0.000151 kPa and 0.000153 kPa and 0.000152 kPa
324.14 K | 0.000196 kPa and 0.000198 kPa and 0.000197 kPa
326.11 K | 0.00025 kPa and 0.000251 kPa and 0.000255 kPa
328.2 K | 0.000315 kPa and 0.00032 kPa and 0.000316 kPa
330.13 K | 0.000401 kPa and 0.000406 kPa and 0.000402 kPa
332.19 K | 0.000518 kPa and 0.000512 kPa
334.12 K | 0.00065 kPa and 0.000639 kPa
336.11 K | 0.000837 kPa and 0.000813 kPa and 0.000829 kPa
338.11 K | 0.00105 kPa and 0.00103 kPa

Conditions | Molar enthalpy of transition or fusion [kcal/mol] | Normal melting temperature [°C]
[1] | – | 94.24
[2] | 5.82 | –

O=C(O)Cc1cccc(Cl)c1 [(3-chlorophenyl)ethanoic acid]
[1]
Conditions | vapor or sublimation pressure
319.2 K | 0.000131 kPa and 0.000132 kPa and 0.000133 kPa
321.13 K | 0.000172 kPa and 0.000174 kPa
323.11 K | 0.000226 kPa and 0.000216 kPa and 0.000224 kPa
325.2 K | 0.000281 kPa and 0.000279 kPa
327.12 K | 0.000356 kPa and 0.00036 kPa
329.11 K | 0.000468 kPa and 0.000453 kPa and 0.00046 kPa
331.19 K | 0.000576 kPa and 0.000578 kPa and 0.000567 kPa
333.11 K | 0.000733 kPa and 0.000713 kPa
335.11 K | 0.00092 kPa

Conditions | Molar enthalpy of transition or fusion [kcal/mol] | Normal melting temperature [°C]
[1] | – | 76.63
[2] | 5.4 | –

O=C(O)Cc1ccc(Cl)cc1 [(4-chlorophenyl)ethanoic acid]
[1]
Conditions | vapor or sublimation pressure
325.2 K | 0.000154 kPa and 0.000156 kPa and 0.000153 kPa
327.15 K | 0.000194 kPa and 0.000199 kPa and 0.000197 kPa
329.12 K | 0.000252 kPa and 0.00025 kPa
331.19 K | 0.000318 kPa and 0.000312 kPa
333.14 K | 0.000401 kPa and 0.000398 kPa and 0.000394 kPa
335.12 K | 0.000506 kPa and 0.000502 kPa
337.2 K | 0.000631 kPa and 0.000634 kPa
339.13 K | 0.000788 kPa and 0.000793 kPa and 0.000775 kPa
341.11 K | 0.001 kPa and 0.00099 kPa and 0.00098 kPa

Conditions | Molar enthalpy of transition or fusion [kcal/mol] | Normal melting temperature [°C]
[1] | – | 104.8
[2] | 5.63 | –
